In patent US20030157154A1, “Compositions containing hydroxy aromatic aldehydes and their use in treatments” (priority 2002, published 2003):

What was measured:
PGE-2 [1] = test: TPA-induced PGE-2 in human skin keratinocytes (ELISA of culture medium); format: cell-based; details: TPA 32 nM
Description: (§1) For this experiment, human skin fibroblasts were seeded into 12 well culture dishes at a density of 80,000 cells/well in tissue culture medium and left overnight to attach to the dish. The next day, medium was removed and replaced with fresh medium containing either 1% ethanol as a diluent control, IL-1 at a concentration of 500 picograms/ml, or IL-1 plus one of the compounds under investigation at a concentration of 1, 10, 50 or 100 μM. Cells were incubated for an additional 24 hours and at this time, the medium was removed and assayed by ELISA for the presence of PGE-2 in the culture medium.
Similar in vitro studies as those described in Example 1 were run using human skin keratinocytes except that the aromatic aldehyde was not added t. The experimental set up was the same as described for Example 1, but replacing IL-1 with tetradecanoyl phorbol acetate (TPA) at a concentration of 32 nM as the agonist. Samples of 3,5-Di-tert-butyl, 4- hydroxybenzaldehyde (DTHB) in concentrations of either 10, 50, or 100 μM were tested. […] However, treatment with DTHB blocked PGE-2 production by at least 50.

PGE-2 [2] = test: IL-1 induced PGE-2 in human skin fibroblasts (ELISA of culture medium); format: cell-based; details: Skin fibroblast, IL-1 500 picograms/ml, 24 hours, read-out: percent inhibition of IL-1 induced PGE-2; for inhibition at 1 µM: compound 1 μM; for inhibition at 10 µM: compound 10 μM; for inhibition at 50 µM: compound 50 μM
Description: as §1

| Compound | inhibition at 10 µM (PGE-2 [1]; Keratinocyte, compound 10 μM, read-out: percent inhibition of TPA-induced PGE-2) [%] | blocked PGE-2 production (PGE-2 [1]; DTHB 10, 50, or 100 μM) | inhibition at 1 µM (PGE-2 [2]) [%] | inhibition at 10 µM (PGE-2 [2]) [%] | inhibition at 50 µM (PGE-2 [2]) [%] |
| --- | --- | --- | --- | --- | --- |
| CC(C)(C)c1cc(C=O)cc(C(C)(C)C)c1O [DTHB, 3,5 di-tert-butyl-4-hydroxybenzaldehyde] | 87.9 | at least 50 | 3.3 | 44.4 | 100 |
| CCOc1ccc(C=O)cc1 [4-EB, 4-ethoxybenzaldehyde, reference compound] | – | – | 10 | 6 | 100 |
